Structures can show the parent of a compound that is named as a salt. Where two headings read alike, the source gives them in different places.
Tested on: KMS.12.BM cells
Experiment: KMS.12.BM cell viability assay
Type: cell-based
Conditions: KMS.12.BM human myeloma cells, 3 days, Cell Titer-GLO ATP quantitation, read-out: KMS cellular IC50
In short: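 IC50 derived from luminescent ATP quantitation (Cell Titer-GLO) of viable cells after 3-day compound treatment. KMS.12.BM human myeloma line seeded at 5000 cells/well in RPMI with 10% FBS.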

Row | SMILES | IC50 (72 h) | IC50
1 | Cc1nnc2ccc3c(cc(-c4ccn(C5(CC#N)CN(C)C5)n4)n3Cc3ccccc3)n12 [Example 93, {3-[3-(6-benzyl-1-methyl-6H-pyrrolo[2,3-e][1,2,4]triazolo[4,3-a]pyridin-7-yl)-1H-pyrazol-1-yl]-1-methylazetidin-3-yl}acetonitrile] | ≤ 1000 nM | –
2 | COC1CN(Cc2cccc(Cn3c(C)cc4c3ccc3nnc(C)n34)c2)C1 [Example 54, 6-{3-[(3-methoxyazetidin-1-yl)methyl]benzyl}-1,7-dimethyl-6H-pyrrolo[2,3-e][1,2,4]triazolo[4,3-a]pyridine] | ≤ 1000 nM | –
3 | Cc1nnc2ccc3c(cc(-c4ccn(CCC(=O)N(C)C)n4)n3Cc3cccc(Cl)c3)n12 [Example 103, 3-{3-[6-(3-chlorobenzyl)-1-methyl-6H-pyrrolo[2,3-e][1,2,4]triazolo[4,3-a]pyridin-7-yl]-1H-pyrazol-1-yl}-N,N-dimethylpropanamide] | – | ≤ 1000 nM
4 | Cc1nnc2ccc3c(cc(-c4cscn4)n3Cc3ccccc3)n12 [Example 66, 6-benzyl-1-methyl-7-(1,3-thiazol-4-yl)-6H-pyrrolo[2,3-e][1,2,4]triazolo[4,3-a]pyridine] | ≤ 1000 nM | –
5 | COC(=O)Nc1cc2c(cc(C)n2Cc2ccccc2)n2c(C)nnc12 [Example 272, Methyl 6-benzyl-1,7-dimethyl-6H-pyrrolo[2,3-e][1,2,4]triazolo[4,3-a]pyridin-4-ylcarbamate] | ≤ 1000 nM | –
6 | Cc1nnc2ccc3c(cc(C(=O)NCCCO)n3Cc3cccc(Cl)c3)n12 [Example 127, 6-(3-Chlorobenzyl)-N-(3-hydroxypropyl)-1-methyl-6H-pyrrolo[2,3-e][1,2,4]triazolo[4,3-a]pyridine-7-carboxamide trifluoroacetate salt] | ≤ 1000 nM | –
7 | CCNC(=O)c1cc2c(ccc3nnc(C)n32)n1Cc1ccccc1 [Example 59, 6-benzyl-N-ethyl-1-methyl-6H-pyrrolo[2,3-e][1,2,4]triazolo[4,3-a]pyridine-7-carboxamide] | ≤ 1000 nM | –
8 | Cc1cc2c(cc(N[C@H]3CCN(C(=O)OC(C)(C)C)C3)c3nnc(C)n32)n1Cc1ccccc1 [Example 150, tert-butyl (3S)-3-[(6-benzyl-1,7-dimethyl-6H-pyrrolo[2,3-e][1,2,4]triazolo[4,3-a]pyridin-4-yl)amino]pyrrolidine-1-carboxylate] | 1000 to 10000 nM | –
9 | CCNC(=O)CCn1ccc(-c2cc3c(ccc4nnc(C)n43)n2Cc2cccc(Cl)c2)n1 [Example 175, 3-{3-[6-(3-Chlorobenzyl)-1-methyl-6H-pyrrolo[2,3-e][1,2,4]triazolo[4,3-a]pyridin-7-yl]-1H-pyrazol-1-yl}-N-ethylpropanamide trifluoroacetate salt] | ≤ 1000 nM | –
10 | Cc1cc2c(ccc3nnc(C)n32)n1Cc1ccc(CN2CC(O)C2)cc1 [Example 52, 1-{4-[(1,7-dimethyl-6H-pyrrolo[2,3-e][1,2,4]triazolo[4,3-a]pyridin-6-yl)methyl]benzyl}azetidin-3-ol] | 1000 to 10000 nM | –
11 | Cc1nnc2ccc3c(cc(C(=O)NCc4ccncc4)n3Cc3ccccc3)n12 [Example 126, 6-Benzyl-1-methyl-N-(pyridin-4-ylmethyl)-6H-pyrrolo[2,3-e][1,2,4]triazolo[4,3-a]pyridine-7-carboxamide bis(trifluoroacetate) salt] | ≤ 1000 nM | –
12 | Cc1nnc2ccc3c(cc(-c4ccn(C)n4)n3Cc3cc(Cl)cc(CN(C)C)c3)n12 [Example 191, 1-(3-Chloro-5-{[1-methyl-7-(1-methyl-1H-pyrazol-3-yl)-6H-pyrrolo[2,3-e][1,2,4]triazolo[4,3-a]pyridin-6-yl]methyl}phenyl)-N,N-dimethylmethanamine bis(trifluoroacetate) salt] | ≤ 1000 nM | –
13 | CCC(=O)N1CC(n2ccc(-c3cc4c(ccc5nnc(C)n54)n3Cc3cccc(Cl)c3)n2)C1 [Example 163, 6-(3-Chlorobenzyl)-1-methyl-7-[1-(1-propionylazetidin-3-yl)-1H-pyrazol-3-yl]-6H-pyrrolo[2,3-e][1,2,4]triazolo[4,3-a]pyridine trifluoroacetate salt] | ≤ 1000 nM | –
14 | Cc1cc2c(ccc3nnc(C)n32)n1Cc1ccccc1 [Example 2, 6-benzyl-1,7-dimethyl-6H-pyrrolo[2,3-e][1,2,4]triazolo[4,3-a]pyridine] | ≤ 1000 nM | –
15 | Cc1cc2c(ccc3nnc(C)n32)n1Cc1ccccn1 [Example 7, 1,7-dimethyl-6-(pyridin-2-ylmethyl)-6H-pyrrolo[2,3-e][1,2,4]triazolo[4,3-a]pyridine] | 1000 to 10000 nM | –
16 | Cc1nnc2ccc3c(cc(-c4ccn(C(C)CC#N)n4)n3Cc3ccccc3)n12 (racemic) [Example 87, 3-[3-(6-benzyl-1-methyl-6H-pyrrolo[2,3-e][1,2,4]triazolo[4,3-a]pyridin-7-yl)-1H-pyrazol-1-yl]butanenitrile trifluoroacetate salt (racemate)] | ≤ 1000 nM | –
17 | Cc1cc2c(cc(N[C@H]3CC[C@H](N)CC3)c3nnc(C)n32)n1Cc1ccccc1 [Example 217, trans-N-(6-Benzyl-1,7-dimethyl-6H-pyrrolo[2,3-e][1,2,4]triazolo[4,3-a]pyridin-4-yl)cyclohexane-1,4-diamine] | ≤ 1000 nM | –
18 | Cc1cc2c(cc(Nc3ccccc3)c3nnc(C)n32)n1Cc1ccccc1 [Example 260, 6-Benzyl-1,7-dimethyl-N-phenyl-6H-pyrrolo[2,3-e][1,2,4]triazolo[4,3-a]pyridin-4-amine] | 1000 to 10000 nM | –

Row | SMILES | IC50 (72 h) | IC50
19 | Cc1cc2c(ccc3nnc(C)n32)n1Cc1cccnc1 [Example 11, 1,7-dimethyl-6-(pyridin-3-ylmethyl)-6H-pyrrolo[2,3-e][1,2,4]triazolo[4,3-a]pyridine] | 1000 to 10000 nM | –
20 | COc1cccc(Cn2c(C)cc3c2ccc2nnc(C)n23)c1 [Example 22, 6-(3-methoxybenzyl)-1,7-dimethyl-6H-pyrrolo[2,3-e][1,2,4]triazolo[4,3-a]pyridine] | ≤ 1000 nM | –
21 | Cc1cc2c(ccc3nnc(C)n32)n1S(=O)(=O)c1ccccc1 [Example 2a, 1,7-dimethyl-6-(phenylsulfonyl)-6H-pyrrolo[2,3-e][1,2,4]triazolo[4,3-a]pyridine] | 1000 to 10000 nM | –
22 | Cc1cc2c(cc(NC3CCN(C)CC3)c3nnc(C)n32)n1Cc1ccccc1 [Example 207, 6-Benzyl-1,7-dimethyl-N-(1-methylpiperidin-4-yl)-6H-pyrrolo[2,3-e][1,2,4]triazolo[4,3-a]pyridin-4-amine] | ≤ 1000 nM | –
23 | Cc1cccc(Cn2c(C)cc3c2ccc2nnc(C)n23)c1 [Example 18, 1,7-dimethyl-6-(3-methylbenzyl)-6H-pyrrolo[2,3-e][1,2,4]triazolo[4,3-a]pyridine] | ≤ 1000 nM | –
24 | Cc1nnc2ccc3c(cc(C(=O)N[C@H]4C[C@H](C#N)C4)n3Cc3ccccc3)n12 [Example 100, 6-benzyl-N-(trans-3-cyanocyclobutyl)-1-methyl-6H-pyrrolo[2,3-e][1,2,4]triazolo[4,3-a]pyridine-7-carboxamide] | 1000 to 10000 nM | –
25 | Cc1cc2c(cc(NCC3CC3)c3nnc(C)n32)n1Cc1ccccc1 [Example 228, 6-Benzyl-N-(cyclopropylmethyl)-1,7-dimethyl-6H-pyrrolo[2,3-e][1,2,4]triazolo[4,3-a]pyridin-4-amine] | 1000 to 10000 nM | –
26 | Cc1cc2c(cc(N[C@H]3CC[C@@H](N)CC3)c3nnc(C)n32)n1Cc1ccccc1 [Example 218, cis-N-(6-Benzyl-1,7-dimethyl-6H-pyrrolo[2,3-e][1,2,4]triazolo[4,3-a]pyridin-4-yl)cyclohexane-1,4-diamine] | 1000 to 10000 nM | –
27 | Cc1cc2c(cc(NC(=O)NC(C)C)c3nnc(C)n32)n1Cc1ccccc1 [Example 250, 1-(6-Benzyl-1,7-dimethyl-6H-pyrrolo[2,3-e][1,2,4]triazolo[4,3-a]pyridin-4-yl)-3-isopropylurea] | ≤ 1000 nM | –
28 | Cc1cc2c(ccc3nnc(C)n32)n1Cc1cccc(CN2CC(O)C2)c1 [Example 27, 1-(3-((1,7-dimethyl-6H-pyrrolo[2,3-e][1,2,4]triazolo[4,3-a]pyridin-6-yl)methyl)benzyl)azetidin-3-ol bis-trifluoroacetate salt] | ≤ 1000 nM | –
29 | Cc1nnc2ccc3c(cc(C(=O)NC4CCC4)n3Cc3ccccc3)n12 [Example 85, 6-benzyl-N-cyclobutyl-1-methyl-6H-pyrrolo[2,3-e][1,2,4]triazolo[4,3-a]pyridine-7-carboxamide] | ≤ 1000 nM | –
30 | Cc1cc2c(cc(NC3CCN(C(C)C)CC3)c3nnc(C)n32)n1Cc1ccccc1 [Example 213, 6-Benzyl-N-(1-isopropylpiperidin-4-yl)-1,7-dimethyl-6H-pyrrolo[2,3-e][1,2,4]triazolo[4,3-a]pyridin-4-amine] | ≤ 1000 nM | –
31 | Cc1cc2c(ccc3nnc(C)n32)n1Cc1ccc(CO)cc1 [Example 49, {4-[(1,7-dimethyl-6H-pyrrolo[2,3-e][1,2,4]triazolo[4,3-a]pyridin-6-yl)methyl]phenyl}methanol] | ≤ 1000 nM | –
32 | Cc1nnc2ccc3c(cc(-c4cn(C)cn4)n3Cc3ccccc3)n12 [Example 70, 6-benzyl-1-methyl-7-(1-methyl-1H-imidazol-4-yl)-6H-pyrrolo[2,3-e][1,2,4]triazolo[4,3-a]pyridine] | ≤ 1000 nM | –
33 | Cc1nnc2ccc3c(cc(-c4ccn(C)n4)n3Cc3cccc(CN4CCC4)c3)n12 [Example 184, 6-[3-(Azetidin-1-ylmethyl)benzyl]-1-methyl-7-(1-methyl-1H-pyrazol-3-yl)-6H-pyrrolo[2,3-e][1,2,4]triazolo[4,3-a]pyridine bis(trifluoroacetate) salt] | ≤ 1000 nM | –
34 | CCNC(=O)CCn1ccc(-c2cc3c(ccc4nnc(C)n43)n2Cc2ccccc2)n1 [Example 96, 3-[3-(6-benzyl-1-methyl-6H-pyrrolo[2,3-e][1,2,4]triazolo[4,3-a]pyridin-7-yl)-1H-pyrazol-1-yl]-N-ethylpropanamide] | ≤ 1000 nM | –
35 | Cc1nnc2ccc3c(cc(-c4ccn(CCC(=O)N(C)C)n4)n3Cc3ccccc3)n12 [Example 95, 3-[3-(6-benzyl-1-methyl-6H-pyrrolo[2,3-e][1,2,4]triazolo[4,3-a]pyridin-7-yl)-1H-pyrazol-1-yl]-N,N-dimethylpropanamide] | ≤ 1000 nM | –

Source: patent US10442803B2, “Tricyclic heterocycles as bet protein inhibitors” (Incyte Corporation, priority 2013, dated 2019)
